According to patent US20210070748A1, “INHIBITORS OF BRUTONS TYROSINE KINASE” (Pharmacyclics LLC, priority 2015, published 2021):
Read-outs that look alike come from different tables or passages of the source.

How the values were obtained:
Assay type in all cases: biochemical
JAK3 = target: T1, JAK3 (Homo sapiens, UniProt P52333); assay: Inhibition of a panel of kinases, in vitro HotSpot kinase assay: JAK3; conditions: read-out: IC50 JAK3
T1 sequence (P52333 1-1124): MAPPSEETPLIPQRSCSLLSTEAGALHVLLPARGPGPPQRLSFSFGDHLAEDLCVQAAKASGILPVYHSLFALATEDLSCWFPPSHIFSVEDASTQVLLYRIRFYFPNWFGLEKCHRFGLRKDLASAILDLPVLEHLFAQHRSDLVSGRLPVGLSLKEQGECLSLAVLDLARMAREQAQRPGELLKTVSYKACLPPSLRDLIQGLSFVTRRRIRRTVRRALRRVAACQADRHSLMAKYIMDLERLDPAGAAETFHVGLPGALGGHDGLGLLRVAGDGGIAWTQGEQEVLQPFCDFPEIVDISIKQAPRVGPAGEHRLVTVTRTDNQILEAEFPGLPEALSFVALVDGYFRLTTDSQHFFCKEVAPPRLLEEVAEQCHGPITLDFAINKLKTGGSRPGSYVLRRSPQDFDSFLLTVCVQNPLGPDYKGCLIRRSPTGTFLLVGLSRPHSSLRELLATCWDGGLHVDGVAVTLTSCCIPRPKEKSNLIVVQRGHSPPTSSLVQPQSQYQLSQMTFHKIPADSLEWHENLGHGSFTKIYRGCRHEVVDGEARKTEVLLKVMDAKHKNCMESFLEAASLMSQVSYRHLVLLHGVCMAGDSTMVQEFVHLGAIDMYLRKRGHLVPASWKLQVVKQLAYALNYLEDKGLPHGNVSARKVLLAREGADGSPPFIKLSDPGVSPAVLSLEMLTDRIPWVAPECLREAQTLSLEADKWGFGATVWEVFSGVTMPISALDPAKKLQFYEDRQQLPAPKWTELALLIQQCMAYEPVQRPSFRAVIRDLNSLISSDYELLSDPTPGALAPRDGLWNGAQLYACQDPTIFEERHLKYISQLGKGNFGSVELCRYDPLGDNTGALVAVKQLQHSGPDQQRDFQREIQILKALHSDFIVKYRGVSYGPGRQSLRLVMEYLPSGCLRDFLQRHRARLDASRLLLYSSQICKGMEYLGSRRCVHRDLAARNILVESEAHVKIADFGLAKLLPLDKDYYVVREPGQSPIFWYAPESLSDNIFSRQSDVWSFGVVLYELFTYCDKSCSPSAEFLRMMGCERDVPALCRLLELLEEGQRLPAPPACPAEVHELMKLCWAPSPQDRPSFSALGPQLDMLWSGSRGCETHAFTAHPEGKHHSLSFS

LCK = LCK (Homo sapiens, UniProt P06239); assay: Inhibition of a panel of kinases, in vitro HotSpot kinase assay: LCK; conditions: read-out: IC50 LCK
ITK = target: T2, ITK (Homo sapiens, UniProt Q08881); assay: Inhibition of a panel of kinases, in vitro HotSpot kinase assay: ITK
T2 sequence (Q08881 1-620): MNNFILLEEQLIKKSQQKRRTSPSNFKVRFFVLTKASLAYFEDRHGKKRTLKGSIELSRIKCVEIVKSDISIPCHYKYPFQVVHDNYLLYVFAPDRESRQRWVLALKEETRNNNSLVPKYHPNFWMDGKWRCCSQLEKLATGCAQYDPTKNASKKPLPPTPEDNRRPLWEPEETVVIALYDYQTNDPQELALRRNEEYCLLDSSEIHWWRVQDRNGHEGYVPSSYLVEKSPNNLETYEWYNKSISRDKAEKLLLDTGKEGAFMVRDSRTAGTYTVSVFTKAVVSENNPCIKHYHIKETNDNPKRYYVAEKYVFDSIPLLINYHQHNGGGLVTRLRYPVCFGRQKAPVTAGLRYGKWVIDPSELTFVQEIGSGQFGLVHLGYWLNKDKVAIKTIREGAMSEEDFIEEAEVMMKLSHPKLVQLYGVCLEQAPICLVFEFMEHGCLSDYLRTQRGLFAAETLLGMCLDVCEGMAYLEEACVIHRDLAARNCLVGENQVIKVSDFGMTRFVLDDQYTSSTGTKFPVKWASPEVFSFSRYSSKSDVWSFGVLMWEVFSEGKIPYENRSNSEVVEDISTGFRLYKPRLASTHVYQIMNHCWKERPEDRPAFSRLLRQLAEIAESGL
Protocol: (§1) The degree of inhibition of a panel of kinases is determined using the in vitro HotSpot kinase assay (purified enzymes, ^33P-ATP, an appropriate substrate and 1 μM ATP).

EGFR = EGFR (Homo sapiens, UniProt P00533); assay: Inhibition of a panel of kinases, in vitro HotSpot kinase assay: EGFR
Protocol: as §1

SRC = SRC (Homo sapiens, UniProt P12931); assay: Inhibition of a panel of kinases, in vitro HotSpot kinase assay: SRC
Protocol: as §1

TEC = target: T3, TEC (Homo sapiens, UniProt P42680); assay: Inhibition of a panel of kinases, in vitro HotSpot kinase assay: TEC
T3 sequence (P42680 1-631): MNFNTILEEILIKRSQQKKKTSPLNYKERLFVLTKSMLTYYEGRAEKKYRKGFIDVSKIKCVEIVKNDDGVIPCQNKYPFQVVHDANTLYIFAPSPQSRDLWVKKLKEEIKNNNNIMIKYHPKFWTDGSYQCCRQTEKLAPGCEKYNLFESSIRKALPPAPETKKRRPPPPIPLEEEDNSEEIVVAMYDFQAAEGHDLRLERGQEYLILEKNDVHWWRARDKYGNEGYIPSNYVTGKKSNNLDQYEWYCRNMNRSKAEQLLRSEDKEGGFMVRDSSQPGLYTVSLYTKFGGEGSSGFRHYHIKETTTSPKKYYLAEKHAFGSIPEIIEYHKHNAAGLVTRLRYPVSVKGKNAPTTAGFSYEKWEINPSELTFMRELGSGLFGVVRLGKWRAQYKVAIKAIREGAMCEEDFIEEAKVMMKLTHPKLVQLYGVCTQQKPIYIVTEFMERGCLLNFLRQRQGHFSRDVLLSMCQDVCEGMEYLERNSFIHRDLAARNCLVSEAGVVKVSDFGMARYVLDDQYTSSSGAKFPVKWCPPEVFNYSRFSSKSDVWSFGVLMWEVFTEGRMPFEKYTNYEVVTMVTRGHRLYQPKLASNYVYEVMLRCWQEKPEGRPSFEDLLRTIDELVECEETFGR
Protocol: as §1

[1] = Table 13, A compounds, 1 μM ATP

Chain of SRC (P12931 whole entry): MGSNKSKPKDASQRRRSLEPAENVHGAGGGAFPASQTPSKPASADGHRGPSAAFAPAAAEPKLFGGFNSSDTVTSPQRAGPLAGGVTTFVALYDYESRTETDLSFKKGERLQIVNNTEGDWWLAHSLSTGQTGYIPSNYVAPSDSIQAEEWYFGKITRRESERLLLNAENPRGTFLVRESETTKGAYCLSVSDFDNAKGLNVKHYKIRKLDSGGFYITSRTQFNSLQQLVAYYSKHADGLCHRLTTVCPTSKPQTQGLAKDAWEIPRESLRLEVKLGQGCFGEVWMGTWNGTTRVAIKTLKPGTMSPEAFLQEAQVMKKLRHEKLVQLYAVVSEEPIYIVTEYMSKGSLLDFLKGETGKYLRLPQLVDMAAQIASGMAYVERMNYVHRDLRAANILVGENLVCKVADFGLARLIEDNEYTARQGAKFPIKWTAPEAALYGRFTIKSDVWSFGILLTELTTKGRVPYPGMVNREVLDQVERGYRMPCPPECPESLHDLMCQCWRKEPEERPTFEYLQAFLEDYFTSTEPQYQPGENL
Chain of EGFR (P00533 25-1210): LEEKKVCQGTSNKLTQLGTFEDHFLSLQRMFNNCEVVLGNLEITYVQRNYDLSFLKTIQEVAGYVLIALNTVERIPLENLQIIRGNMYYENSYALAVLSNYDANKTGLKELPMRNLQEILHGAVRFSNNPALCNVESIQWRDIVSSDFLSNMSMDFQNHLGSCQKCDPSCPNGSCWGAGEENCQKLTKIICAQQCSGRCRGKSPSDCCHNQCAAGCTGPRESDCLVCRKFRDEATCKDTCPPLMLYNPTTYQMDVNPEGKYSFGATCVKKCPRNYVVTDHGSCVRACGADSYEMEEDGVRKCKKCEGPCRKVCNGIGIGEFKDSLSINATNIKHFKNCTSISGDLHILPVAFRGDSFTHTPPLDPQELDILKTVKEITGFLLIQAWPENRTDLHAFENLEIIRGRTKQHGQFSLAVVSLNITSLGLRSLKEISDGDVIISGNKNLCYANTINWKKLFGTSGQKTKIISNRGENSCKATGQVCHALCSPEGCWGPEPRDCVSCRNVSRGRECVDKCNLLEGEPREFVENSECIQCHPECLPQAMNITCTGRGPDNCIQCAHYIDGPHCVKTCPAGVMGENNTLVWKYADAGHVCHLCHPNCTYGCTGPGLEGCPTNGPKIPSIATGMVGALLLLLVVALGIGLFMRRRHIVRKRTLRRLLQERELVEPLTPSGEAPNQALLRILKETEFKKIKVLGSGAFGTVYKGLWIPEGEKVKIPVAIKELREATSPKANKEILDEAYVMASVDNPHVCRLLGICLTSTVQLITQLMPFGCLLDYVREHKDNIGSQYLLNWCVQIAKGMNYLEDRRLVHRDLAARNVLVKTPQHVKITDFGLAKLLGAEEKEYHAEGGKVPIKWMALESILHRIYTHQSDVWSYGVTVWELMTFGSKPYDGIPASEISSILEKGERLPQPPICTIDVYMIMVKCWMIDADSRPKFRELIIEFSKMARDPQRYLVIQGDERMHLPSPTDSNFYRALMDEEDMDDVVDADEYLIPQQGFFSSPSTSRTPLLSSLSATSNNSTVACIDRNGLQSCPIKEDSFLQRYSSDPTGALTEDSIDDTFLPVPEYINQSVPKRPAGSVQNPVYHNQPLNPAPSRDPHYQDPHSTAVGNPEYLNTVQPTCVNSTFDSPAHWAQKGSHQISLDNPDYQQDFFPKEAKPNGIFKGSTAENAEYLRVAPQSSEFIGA
Chain of LCK (P06239 whole entry): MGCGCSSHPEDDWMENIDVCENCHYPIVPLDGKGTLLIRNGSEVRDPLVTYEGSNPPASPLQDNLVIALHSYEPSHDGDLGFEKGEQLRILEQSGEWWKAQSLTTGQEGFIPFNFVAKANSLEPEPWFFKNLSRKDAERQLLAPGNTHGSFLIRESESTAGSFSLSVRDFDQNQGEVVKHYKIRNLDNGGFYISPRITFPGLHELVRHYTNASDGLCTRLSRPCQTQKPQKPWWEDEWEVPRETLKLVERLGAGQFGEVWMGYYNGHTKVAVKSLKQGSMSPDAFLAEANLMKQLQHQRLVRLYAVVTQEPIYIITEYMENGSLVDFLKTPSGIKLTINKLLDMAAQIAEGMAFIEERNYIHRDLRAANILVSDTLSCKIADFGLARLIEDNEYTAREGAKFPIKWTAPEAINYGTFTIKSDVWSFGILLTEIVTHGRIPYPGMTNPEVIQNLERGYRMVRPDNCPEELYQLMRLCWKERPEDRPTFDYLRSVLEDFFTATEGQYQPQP

| IC50 (JAK3; E compounds, Table 17) [nM] | IC50 (LCK; E compounds, Table 17) [nM] | IC50 (ITK; E compounds, Table 17) [nM] | IC50 (EGFR; E compounds, Table 17) [nM] | IC50 (SRC; E compounds, Table 17) [nM] | IC50 (TEC; E compounds, Table 17) [nM] | IC50 (JAK3; [1]) [nM] | IC50 (LCK; [1]) [nM] | IC50 (ITK; [1]) [nM] | IC50 (EGFR; [1]) [nM] | IC50 (SRC; [1]) [nM] | IC50 (TEC; [1]) [nM] | SMILES |
| --- | --- | --- | --- | --- | --- | --- | --- | --- | --- | --- | --- | --- |
| < 10 | 1000 to 10000 | ≤ 10 | 100 to 1000 | 100 to 1000 | ≤ 10 | – | – | – | – | – | – | C=CC(=O)N1CC[C@@H](N(C)c2cnc(C(N)=O)c(Nc3cnn(CCOC)c3)n2)C1 [Example E-110, (R)-5-((1-acryloylpyrrolidin-3-yl)(methyl)amino)-3-(1-(2-methoxyethyl)-1H-pyrazol-4-ylamino)pyrazine-2-carboxamide] |
| > 10000 | 1000 to 10000 | > 10000 | > 10000 | > 10000 | 1000 to 10000 | – | – | – | – | – | – | C[C@@H]1CCN(c2cnc(C(N)=O)c(Nc3cnn(C)c3)n2)C[C@@H]1NC(=O)c1ccc(C2CC2)cc1 [Example E-140, 5-((3R,4R)-3-(4-cyclopropylbenzamido)-4-methylpiperidin-1-yl)-3-((1-methyl-1H-pyrazol-4-yl)amino)pyrazine-2-carboxamide] |
| 100 to 1000 | 100 to 1000 | 100 to 1000 | 100 to 1000 | 10 to 100 | ≤ 10 | – | – | – | – | – | – | C[C@@H]1[C@H](NC(=O)c2ccc(C(=O)N(C)C)cc2)CCCN1c1cnc(C(N)=O)c(Nc2cnn(C)c2)n1 [Example E-138, N1-((2R,3R)-1-(5-carbamoyl-6-((1-methyl-1H-pyrazol-4-yl)amino)pyrazin-2-yl)-2-methylpiperidin-3-yl)-N4,N4-dimethylterephthalamide] |
| 1000 to 10000 | 10 to 100 | 10 to 100 | 1000 to 10000 | 10 to 100 | 10 to 100 | – | – | – | – | – | – | C[C@@H]1[C@H](NC(=O)c2ccc(C3CC3)cc2)CCCN1c1cnc(C(N)=O)c(Nc2ccc(N3CCN(C4CCCC4)C[C@@H]3C)cc2)n1 [Example E-137, 3-((4-((S)-4-cyclopentyl-2-methylpiperazin-1-yl)phenyl)amino)-5-((2R,3R)-3-(4-cyclopropylbenzamido)-2-methyipiperidin-1-yl)pyrazine-2-carboxamide] |
| 100 to 1000 | 10 to 100 | 100 to 1000 | 100 to 1000 | 10 to 100 | ≤ 10 | – | – | – | – | – | – | C[C@@H]1[C@H](NC(=O)c2cccc(C(C)(C)O)c2)CCCN1c1cnc(C(N)=O)c(Nc2cnn(C)c2)n1 [Example E-145, 5-((2R,3R)-3-(3-(2-hydroxypropan-2-yl)benzamido)-2-methylpiperidin-1-yl)-3-((1-methyl-1H-pyrazol-4-yl)amino)pyrazine-2-carboxamide] |

Second part, the compound before the results:

| SMILES | IC50 (JAK3; E compounds, Table 17) [nM] | IC50 (LCK; E compounds, Table 17) [nM] | IC50 (ITK; E compounds, Table 17) [nM] | IC50 (EGFR; E compounds, Table 17) [nM] | IC50 (SRC; E compounds, Table 17) [nM] | IC50 (TEC; E compounds, Table 17) [nM] | IC50 (JAK3; [1]) [nM] | IC50 (LCK; [1]) [nM] | IC50 (ITK; [1]) [nM] | IC50 (EGFR; [1]) [nM] | IC50 (SRC; [1]) [nM] | IC50 (TEC; [1]) [nM] |
| --- | --- | --- | --- | --- | --- | --- | --- | --- | --- | --- | --- | --- |
| C[C@@H]1[C@H](NC(=O)c2ccc(C3CC3)cc2F)CCCN1c1cnc(C(N)=O)c(Nc2ccc(S(=O)(=O)N3CCN(C)CC3)cc2)n1 [Example A-156, 5-[(2R,3R)-3-(4-cyclopropyl-2-fluorobenzamido)-2-methylpiperidin-1-yl]-3-({4-[(4-methylpiperazin-1-yl)sulfonyl]phenyl}amino)pyr-azine-2-carboxamide] | – | – | – | – | – | – | > 10000 | 1000 to 10000 | 100 to 1000 | 1000 to 10000 | 100 to 1000 | 100 to 1000 |
| C[C@@H]1[C@H](NC(=O)c2ccc(C3CC3)cc2)CCCN1c1cnc(C(N)=O)c(Nc2cnn(C3CCN(C)CC3)c2)n1 [Example A-173] | – | – | – | – | – | – | 1000 to 10000 | 10 to 100 | 100 to 1000 | 100 to 1000 | 10 to 100 | 10 to 100 |
| C[C@@H]1[C@H](NC(=O)c2ccc(C(C)(C)C)cc2)CCCN1c1cnc(C(N)=O)c(Nc2ccc(N3CCN(C)CC3)cc2)n1 [Example A-184, 5-[(2R,3R)-3-(4-tert-butylbenzamido)-2-methylpiperidin-1-yl]-3-{[4-(4-methylpiperazin-1-yl)phenyl]amino}pyrazine-2-carboxamide] | – | – | – | – | – | – | > 10000 | > 10000 | 100 to 1000 | 1000 to 10000 | 1000 to 10000 | 10 to 100 |
| CN(C)C(=O)N[C@@H]1CCCN(c2cnc(C(N)=O)c(Nc3ccc(C4(C)CCN(C5CCCC5)CC4)cc3)n2)[C@@H]1CO [Example A-101, 3-{[4-(1-cyclopentyl-4-methylpiperidin-4-yl)phenyl]amino}-5-[(2S,3R)-3-[(dimethylcarbamoyl)amino]-2-(hydroxymethyl)piperidin-1-yl]pyrazine-2-carboxamide] | – | – | – | – | – | – | 1000 to 10000 | 100 to 1000 | 1000 to 10000 | 100 to 1000 | 100 to 1000 | 100 to 1000 |
| Cc1cc(Nc2nc(N3CCC[C@@H](NC(=O)N4Cc5ccccc5C4=O)C3)cnc2C(N)=O)sn1 [Example A-183, N-[(3R)-1-{5-carbamoyl-6-[(3-methyl-1,2-thiazol-5-yl)amino]pyrazin-2-yl}piperidin-3-yl]-1-oxo-2,3-dihydro-1H-isoindole-2-carboxamide] | – | – | – | – | – | – | 1000 to 10000 | 10 to 100 | 10 to 100 | 100 to 1000 | 10 to 100 | 10 to 100 |
| CN1CCN(c2ccc(Nc3nc(N4CCC[C@@H](n5ccc6cc(C7CC7)cc(F)c6c5=O)C4)cnc3C(N)=O)cc2)CC1 [Example A-133, 5-[(3R)-3-(6-cyclo-propyl-8-fluoro-1-oxo-1,2-dihydroisoquinolin-2-yl)piperidin-1-yl]-3-{[4-(4-methylpiperazin-1-yl)phenyl]amino}pyrazine-2-carboxamide] | – | – | – | – | – | – | 100 to 1000 | 100 to 1000 | 100 to 1000 | 100 to 1000 | 10 to 100 | 10 to 100 |
| C[C@@H]1[C@H](NC(=O)c2ccc(C3CC3)cc2)CCCN1c1cnc(C(N)=O)c(Nc2cc(CN3CCCCC3)ns2)n1 [Example A-181, 5-[(2R,3R)-3-(4-cyclopropylbenzamido)-2-methylpiperidin-1-yl]-3-{[3-(piperidin-1-ylmethyl)-1,2-thiazol-5-yl]amino}pyrazine-2-carboxamide] | – | – | – | – | – | – | 100 to 1000 | 10 to 100 | 10 to 100 | 1000 to 10000 | 10 to 100 | 10 to 100 |
